pIC50: −log10 of the molar value.
Assays:
[1] = biological target: T1, recombinant human FLAP protein (Homo sapiens, UniProt P20292); test: FLAP binding assay (Scintillation Proximity Assay, displacement of [125I]L-691,831); details: read-out: FLAP SPA IC50
T1 construct: made in house; host or cells: Sf9 insect cells (100,000xg membrane fraction used)
T1 sequence (P20292 1-161): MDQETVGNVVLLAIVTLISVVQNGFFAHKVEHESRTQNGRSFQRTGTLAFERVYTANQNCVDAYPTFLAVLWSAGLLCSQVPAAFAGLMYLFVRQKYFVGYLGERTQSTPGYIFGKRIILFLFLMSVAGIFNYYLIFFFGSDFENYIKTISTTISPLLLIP
Protocol: Compounds are assessed for the ability to bind to FLAP in a binding assay that measures compound-specific displacement of an iodinated (^125I) FLAP inhibitor via a Scintillation Proximity Assay format (adapted from S. Charleson et al., Mol. Pharmacol., 1992, 41, 873-879).
Cell pellets produced from sf9 insect cells expressing recombinant human FLAP protein are resuspended in buffer A [15 mM Tris-HCl (pH 7.5), 2 mM MgCl2, 0.3 mM EDTA, 1 mM PMSF]. The cells are lysed with a Dounce homogenizer and the material is centrifuged at 10,000×g for 10 minutes. The supernatant is then collected and centrifuged at 100,000×g for 60 minutes. To prepare membrane protein for an assay, an aliquot of the 100,000×g pellet is resuspended in 1 ml of buffer A, Dounce homogenized, and finally subjected to polytron mixing (30 seconds). Membrane protein (25 μl, 5 μg) is mixed with WGA SPA beads (Amersham) and stirred for 1 h. […] (final concentrations: beads, 200 μg/well; protein, 5 μg/well; [^125I] probe, 0.08 nM/well (17 nCi/well). The plates are shaken for 2 h before reading on a Microbeta plate reader. Non-specific binding is determined by the addition of 10 μM cold L-691,831 compound.

[2] = system: synthesis of LTB4 in human whole blood; test: human whole blood LTB4 production inhibition assay; format: cell-based; details: calcimycin stimulated, read-out: hWB LTB4 IC50
Protocol: Compounds are additionally tested in a human whole blood assay to determine their ability to inhibit the synthesis of LTB4 in a cellular system. Compounds are combined with heparinized human whole blood and incubated for 15 minutes at 37° C. Calcimycin (20 μM final, prepared in phosphate-buffered saline, pH 7.4) is then added and the mixture is incubated for another 30 minutes at 37° C. The samples are centrifuged for 5 min at low speed (1500×g) and the plasma layer is removed. Plasma LTB4 concentrations are then measured using an antibody-based homogenous time-resolved fluorescence method (CisBio, Bedford, Mass.).

Row | Compound | pIC50 [1] | pIC50 [2]
1 | CC(C)[C@@](C)(c1ccc(-c2cnc(N)nc2)nc1)c1noc(-c2cnc(N3CCNCC3)cn2)n1 [Example 52, 5-{5-[(2S)-3-methyl-2-{5-[5-(piperazin-1-yl)pyrazin-2-yl]-1,2,4-oxadiazol-3-yl}butan-2-yl]pyridin-2-yl}pyrimidin-2-amine] | 7.85 | 6.57
2 | CNc1ncc(-c2ccc([C@](C)(c3noc(-c4cnn(C)c4)n3)C3CC3)cn2)cn1 [Example 172, [5-(5-{(R)-1-Cyclopropyl-1-[5-(1-methyl-1H-pyrazol-4-yl)-[1,2,4]oxadiazol-3-yl]ethyl}-pyridin-2-yl)-pyrimidin-2-yl]-methyl-amine] |  | 6.98
3 | CCn1cc(-c2nc(C(C)(c3ccc(-c4cnc(N)nc4)nc3)C(C)C)no2)cn1 (centres unmarked) [Example 29, 5-(5-{2-[5-(1-ethyl-1H-pyrazol-4-yl)-1,2,4-oxadiazol-3-yl]-3-methylbutan-2-yl}pyridin-2-yl)pyrimidin-2-amine] | 8.40 | 7.40
4 | CC(c1ccc(-c2ccc(N)nc2)nc1)(c1noc(-c2cn[nH]c2)n1)C1CC1 (centres unmarked) [Example 98, 5-{1-Cyclopropyl-1-[5-(1H-pyrazol-4-yl)-[1,2,4]oxadiazol-3-yl]-ethyl}-[2,3′]bipyridinyl-6′-ylamine] | 7.59 | 6.30
5 | COCCN(C)C(=O)Cn1cc(-c2nc([C@@](C)(c3ccc(-c4cnc(N)nc4)nc3)C(C)C)no2)cn1 [Example 153, 2-[4-(3-{(R)-1-[6-(2-Amino-pyrimidin-5-yl)-pyridin-3-yl]-1,2-dimethyl-propyl}-1,2,4-oxadiazol-5-yl)-pyrazol-1-yl]-N-(2-methoxy-ethyl)-N-methyl-acetamide] | 7.80 | 6.82
6 | CC(C)[C@](C)(c1ccc(-c2cnc(N)cn2)nc1)c1noc(-c2cnn(CC(C)(C)O)c2)n1 [Example 110, 1-[4-(3-{(R)-1-[6-(5-Amino-pyrazin-2-yl)-pyridin-3-yl]-1,2-dimethyl-propyl}-[1,2,4]oxadiazol-5-yl)-pyrazol-1-yl]-2-methyl-propan-2-ol] | 8.23 | 7.51
7 | CC(C)(O)Cn1cc(-c2nc([C@@](C)(c3ccc(-c4cnc(N)nc4C#N)nc3)C3CC3)no2)cn1 [Example 163, 2-Amino-5-[5-((R)-1-cyclopropyl-1-{5-[1-(2-hydroxy-2-methyl-propyl)-1H-pyrazol-4-yl]-[1,2,4]oxadiazol-3-yl}-ethyl)-pyridin-2-yl]-pyrimidine-4-carbonitrile] | 6.54 | 6.46
8 | CC(C)(O)Cn1cc(-c2nc([C@](C)(c3ccc(-c4cnc(N)nc4)nc3)C3CC3)no2)cn1 [Example 82, 1-[4-(3-{(1S)-1-[6-(2-aminopyrimidin-5-yl)pyridin-3-yl]-1-cyclopropylethyl}-1,2,4-oxadiazol-5-yl)-1H-pyrazol-1-yl]-2-methylpropan-2-ol] |  | 5.92
9 | CNc1ncc(-c2ccc([C@](C)(c3noc(-c4cnn(CC(=O)N(C)C)c4)n3)C3CC3)cn2)cn1 [Example 176, 2-[4-(3-{(R)-1-Cyclopropyl-1-[6-(2-methylamino-pyrimidin-5-yl)-pyridin-3-yl]-ethyl}-[1,2,4]oxadiazol-5-yl)-pyrazol-1-yl]-N,N-dimethyl-acetamide] |  | 6.57
10 | CC(C)(O)Cn1cc(-c2nc([C@@](C)(c3ccc(-c4cnc5c(c4)OCCN5)nc3)C3CC3)no2)cn1 [Example 167, 1-[4-(3-{(R)-1-Cyclopropyl-1-[6-(3,4-dihydro-2H-pyrido[3,2-b][1,4]oxazin-7-yl)-pyridin-3-yl]-ethyl}-[1,2,4]oxadiazol-5-yl)-pyrazol-1-yl]-2-methyl-propan-2-ol] |  | 6.77
11 | C[C@@](c1ccc(-c2cnc(N)nc2)nc1)(c1noc(-c2cnn(C3CCOCC3)c2)n1)C1CC1 [Example 171, 5-[5-((R)-1-Cyclopropyl-1-{5-[1-(tetrahydro-pyran-4-yl)-1H-pyrazol-4-yl]-[1,2,4]oxadiazol-3-yl}ethyl)-pyridin-2-yl]-pyrimidin-2-ylamine] |  | 6.92
12 | C[C@@](c1ccc(-c2cnc(N)cn2)nc1)(c1noc(-c2cnn(C3CCOCC3)c2)n1)C1CC1 [Example 174] |  | 7.28
13 | CNc1ncc(-c2ccc([C@](C)(c3noc(-c4cnn(C5CCOCC5)c4)n3)C3CC3)cn2)cn1 [Example 169, {5-[5-((R)-1-Cyclopropyl-1-{5-[1-(tetrahydro-pyran-4-yl)-1H-pyrazol-4-yl]-[1,2,4]oxadiazol-3-yl}-ethyl)-pyridin-2-yl]-pyrimidin-2-yl}-methyl-amine] |  | 6.98

More lines, now with the values ahead:

Row | pIC50 [1] | pIC50 [2] | Compound
14 |  | 7.39 | CC(C)(O)Cn1cc(-c2nc([C@@](C)(c3ccc(-c4cnc(N)nc4)nc3)C3CC3)no2)cn1 [Example 81, 1-[4-(3-{(1R)-1-[6-(2-aminopyrimidin-5-yl)pyridin-3-yl]-1-cyclopropylethyl}-1,2,4-oxadiazol-5-yl)-1H-pyrazol-1-yl]-2-methylpropan-2-ol]
15 | 6.72 | 6.51 | Cc1nc(N)ncc1-c1ccc(C(C)(c2noc(-c3cnn(C)c3)n2)C2CC2)cn1 (centres unmarked) [Example 180, 5-(5-{1-Cyclopropyl-1-[5-(1-methyl-1H-pyrazol-4-yl)-[1,2,4]oxadiazol-3-yl]-ethyl}-pyridin-2-yl)-4-methyl-pyrimidin-2-ylamine]
16 | 8.32 | 6.85 | CC(C)C(C)(c1ccc(-c2cnc(N)nc2)nc1)c1noc(-c2cnc(NC[C@@H](C)O)cn2)n1 (stereo partly drawn) [Example 19, (2R)-1-{[5-(3-{2-[6-(2-aminopyrimidin-5-yl)pyridin-3-yl]-3-methylbutan-2-yl}-1,2,4-oxadiazol-5-yl)pyrazin-2-yl]amino}propan-2-ol]
17 | 9.85 | 7.82 | CC(C)[C@](C)(c1ccc(-c2cnc(N)cn2)nc1)c1noc(-c2cnn(C)c2)n1 [Example 77, 5-(5-{(2R)-3-methyl-2-[5-(1-methyl-1H-pyrazol-4-yl)-1,2,4-oxadiazol-3-yl]butan-2-yl}pyridin-2-yl)pyrazin-2-amine]
18 | 7.80 | 7.07 | CC(C)NC(=O)Cn1cc(-c2nc([C@@](C)(c3ccc(-c4cnc(N)nc4)nc3)C(C)C)no2)cn1 [Example 142, 2-[4-(3-{(R)-1-[6-(2-Amino-pyrimidin-5-yl)-pyridin-3-yl]-1,2-dimethyl-propyl}-1,2,4-oxadiazol-5-yl)-pyrazol-1-yl]-N-isopropyl-acetamide]
19 | 8.74 | 7.47 | CCNc1cnc(-c2nc([C@@](C)(c3ccc(-c4cnc(N)nc4)nc3)C(C)C)no2)cn1 [Example 41, 5-{5-[(2R)-2-{5-[5-(ethylamino)pyrazin-2-yl]-1,2,4-oxadiazol-3-yl}-3-methylbutan-2-yl]pyridin-2-yl}pyrimidin-2-amine]
20 |  | 6.95 | CNc1cnc(-c2ccc([C@](C)(c3noc(-c4cnn(C)c4)n3)C3CC3)cn2)cn1 [Example 170, [5-(5-{(R)-1-Cyclopropyl-1-[5-(1-methyl-1H-pyrazol-4-yl)-[1,2,4]oxadiazol-3-yl]-ethyl}-pyridin-2-yl)-pyrazin-2-yl]-methyl-amine]
21 |  | 7.28 | CC(C)(O)Cn1cc(-c2nc(C(C)(c3ccc(-c4cnc(N)nc4)nc3)C3CC3)no2)cn1 (centres unmarked) [Example 66, 1-[4-(3-{1-[6-(2-aminopyrimidin-5-yl)pyridin-3-yl]-1-cyclopropylethyl}-1,2,4-oxadiazol-5-yl)-1H-pyrazol-1-yl]-2-methylpropan-2-ol]
22 |  | 7.20 | CC(C)(O)Cn1cc(-c2nc([C@@](C)(c3ccc(-c4cnc5[nH]ccc5n4)nc3)C3CC3)no2)cn1 [Example 168, 1-[4-(3-{(R)-1-Cyclopropyl-1-[6-(5H-pyrrolo[2,3-b]pyrazin-2-yl)-pyridin-3-yl]-ethyl}-[1,2,4]oxadiazol-5-yl)-pyrazol-1-yl]-2-methyl-propan-2-ol]
23 |  | 6.50 | CC(C)(O)Cn1cc(-c2nc([C@@](C)(c3ccc(-c4cnc(N)c(C#N)c4)nc3)C3CC3)no2)cn1 [Example 162, 6′-Amino-5-((R)-1-cyclopropyl-1-{5-[1-(2-hydroxy-2-methyl-propyl)-1H-pyrazol-4-yl]-[1,2,4]oxadiazol-3-yl}-ethyl)-[2,3′]bipyridinyl-5′-carbonitrile]
24 |  | 6.66 | CNc1cnc(-c2ccc([C@](C)(c3noc(-c4cnn(C5CCOCC5)c4)n3)C3CC3)cn2)cn1 [Example 173, {5-[5-((R)-1-Cyclopropyl-1-{5-[1-(tetrahydro-pyran-4-yl)-1H-pyrazol-4-yl]-[1,2,4]oxadiazol-3-yl}-ethyl)-pyridin-2-yl]-pyrazin-2-yl}-methyl-amine]
